According to US6737383B1, “Herbicidal oxadiazolidines” (priority 1999, dated 2004):

Legend:
bedstraw = test: Test B pre/postemergence bedstraw; format: in vivo, Galium aparine
In short: (§1)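 Response is a visual 0-to-10 score relative to untreated plants, where 0 means no effect and 10 means complete control, taken twelve to sixteen days after application. Treatments went onto soil at planting and onto foliage of 1- to 4-leaf plants, using a surfactant-containing non-phytotoxic solvent.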

blackgrass = test: Test B pre/postemergence blackgrass; format: in vivo, Alopecurus myosuroides
In short: as §1

surinam grass = test: Test B pre/postemergence surinam grass; format: in vivo, Brachiaria decumbens
In short: as §1

cocklebur = test: Test B pre/postemergence cocklebur; format: in vivo, Xanthium strumarium
In short: as §1

corn = test: Test B pre/postemergence corn; format: in vivo, Zea mays
In short: as §1

giant foxtail = test: Test B pre/postemergence giant foxtail; format: in vivo, Setaria faberii
In short: as §1

morningglory = test: Test B pre/postemergence morningglory; format: in vivo, Ipomoea hederacea
In short: as §1

pigweed = test: Test B pre/postemergence pigweed; format: in vivo, Amaranthus retroflexus
In short: as §1

rape = test: Test B pre/postemergence rape; format: in vivo, Brassica napus
In short: as §1

sugar beet = test: Test B pre/postemergence sugar beet; format: in vivo, Beta vulgaris
In short: as §1

velvetleaf = test: Test B pre/postemergence velvetleaf; format: in vivo, Abutilon theophrasti
In short: as §1

purple nutsedge = test: Test B pre/postemergence purple nutsedge; format: in vivo, Cyperus rotundus
In short: as §1

rice = test: Test B flood test rice; format: in vivo, Oryza sativa
In short: (§2)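 Plants were grown to the 2-leaf stage before treatment with test chemical, then held in a greenhouse for twelve to sixteen days. Injury was visually rated against untreated controls on a 0–10 scale, where 0 is no effect and 10 is complete control.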

duck salad = test: Test B flood test duck salad; format: in vivo, Heteranthera limosa
In short: as §2

bamyardgrass = test: Test B flood test barnyardgrass; format: in vivo, Echinochloa crus-galli
In short: as §2

[1] = Postemergence, Rate 62 g/ha, scale 0 to 10, 0 is no effect, 10 is complete control
[2] = Postemergence, Rate 250 g/ha, scale 0 to 10, 0 no effect, 10 complete control
[3] = Preemergence, Rate 62 g/ha, scale 0 to 10 (0 no effect, 10 complete control)
[4] = Preemergence, Rate 125 g/ha, scale 0 to 10 (0 no effect, 10 complete control)
[5] = Preemergence, Rate 250 g/ha, scale of 0 to 10 where 0 is no effect and 10 is complete control
[6] = Preemergence, Rate 500 g/ha, scale 0 (no effect) to 10 (complete control)
[7] = Rate 125 g/ha, Postemergence, scale 0 to 10, 0 no effect, 10 complete control
[8] = Rate 500 g/ha, Postemergence, scale 0 to 10, 0 no effect, 10 complete control
[9] = Rate 125 g/ha, Postemergence section (flood test species), scale 0 to 10, 0 no effect, 10 complete control
[10] = Rate 500 g/ha, listed under Postemergence (flood test species), scale 0 to 10, 0 no effect, 10 complete control
[11] = flood test, listed under Postemergence, Rate 250 g/ha, scale 0 to 10, 0 no effect, 10 complete control

COc1cccc(C)c1-n1c(=O)on(C(=O)N(c2ccc(F)cc2F)C(C)C)c1=O [Compound 74]
Bedstraw plant response rating (bedstraw; [1]): 0 | Bedstraw plant response rating (bedstraw; [2]): 5 | Bedstraw plant response rating (bedstraw; [3]): 0 | Plant response rating, Bedstraw (bedstraw; [4]): 0 | Plant response rating, Bedstraw (bedstraw; [5]): 0 | Bedstraw plant response rating (bedstraw; [6]): 0 | Bedstraw plant response rating (bedstraw; [7]): 0 | Bedstraw plant response rating (bedstraw; [8]): 8 | Blackgrass plant response rating (blackgrass; [1]): 0 | Blackgrass plant response rating (blackgrass; [2]): 0 | Blackgrass plant response rating (blackgrass; [3]): 0 | Plant response rating, Blackgrass (blackgrass; [4]): 0 | Plant response rating, Blackgrass (blackgrass; [5]): 0 | Blackgrass plant response rating (blackgrass; [6]): 0 | Blackgrass plant response rating (blackgrass; [7]): 0 | Blackgrass plant response rating (blackgrass; [8]): 3 | B. signalgrass plant response rating (surinam grass; [1]): 0 | B. signalgrass plant response rating (surinam grass; [2]): 0 | B. signalgrass plant response rating (surinam grass; [3]): 0 | Plant response rating, B. signalgrass (surinam grass; [4]): 0 | Plant response rating, B. signalgrass (surinam grass; [5]): 0 | B. signalgrass plant response rating (surinam grass; [6]): 0 | B. signalgrass plant response rating (surinam grass; [7]): 0 | B. signalgrass plant response rating (surinam grass; Rate 500 g/ha, Postemergence, scale of 0 to 10 where 0 is no effect and 10 is complete control): 2 | Cocklebur plant response rating (cocklebur; [1]): 0 | Cocklebur plant response rating (cocklebur; [2]): 0 | Cocklebur plant response rating (cocklebur; [3]): 0 | Plant response rating, Cocklebur (cocklebur; [4]): 0 | Plant response rating, Cocklebur (cocklebur; [5]): 0 | Cocklebur plant response rating (cocklebur; [6]): 0 | Cocklebur plant response rating (cocklebur; [7]): 0 | Cocklebur plant response rating (cocklebur; [8]): 4 | Corn plant response rating (corn; [1]): 0 | Corn plant response rating (corn; [2]): 0 | Corn plant response rating (corn; [3]): 0 | Plant response rating, Corn (corn; [4]): 0 | Plant response rating, Corn (corn; [5]): 0 | Corn plant response rating (corn; [6]): 0 | Corn plant response rating (corn; [7]): 0 | Corn plant response rating (corn; [8]): 0 | Giant foxtail plant response rating (giant foxtail; [1]): 0 | Giant foxtail plant response rating (giant foxtail; [3]): 3 | Plant response rating, Giant foxtail (giant foxtail; [4]): 7 | Plant response rating, Giant foxtail (giant foxtail; [5]): 8 | Giant foxtail plant response rating (giant foxtail; [6]): 10 | Giant foxtail plant response rating (giant foxtail; [7]): 0 | Giant foxtail plant response rating (giant foxtail; [8]): 2 | Morningglory plant response rating (morningglory; [1]): 2 | Morningglory plant response rating (morningglory; [2]): 3 | Morningglory plant response rating (morningglory; [3]): 0 | Plant response rating, Morningglory (morningglory; [4]): 0 | Plant response rating, Morningglory (morningglory; [5]): 0 | Morningglory plant response rating (morningglory; [6]): 0 | Morningglory plant response rating (morningglory; [7]): 2 | Morningglory plant response rating (morningglory; [8]): 4 | Redroot pigweed plant response rating (pigweed; [1]): 0 | Redroot pigweed plant response rating (pigweed; [2]): 0 | Redroot pigweed plant response rating (pigweed; [3]): 0 | Plant response rating, Redroot pigweed (pigweed; [4]): 0 | Plant response rating, Redroot pigweed (pigweed; [5]): 0 | Redroot pigweed plant response rating (pigweed; [6]): 3 | Redroot pigweed plant response rating (pigweed; [7]): 0 | Redroot pigweed plant response rating (pigweed; [8]): 0 | Rape plant response rating (rape; [1]): 0 | Rape plant response rating (rape; [2]): 0 | Rape plant response rating (rape; [3]): 0 | Plant response rating, Rape (rape; [4]): 0 | Plant response rating, Rape (rape; [5]): 0 | Rape plant response rating (rape; [6]): 5 | Rape plant response rating (rape; [7]): 0 | Rape plant response rating (rape; [8]): 2 | Sugarbeets plant response rating (sugar beet; [1]): 0 | Sugarbeets plant response rating (sugar beet; [2]): 0 | Sugarbeets plant response rating (sugar beet; [3]): 0 | Plant response rating, Sugarbeets (sugar beet; [4]): 0 | Plant response rating, Sugarbeets (sugar beet; [5]): 2 | Sugarbeets plant response rating (sugar beet; [6]): 4 | Sugarbeets plant response rating (sugar beet; [7]): 0 | Sugarbeets plant response rating (sugar beet; [8]): 0 | Velvetleaf plant response rating (velvetleaf; [1]): 2 | Velvetleaf plant response rating (velvetleaf; [2]): 4 | Velvetleaf plant response rating (velvetleaf; [3]): 0 | Plant response rating, Velvetleaf (velvetleaf; [4]): 0 | Plant response rating, Velvetleaf (velvetleaf; [5]): 0 | Velvetleaf plant response rating (velvetleaf; [6]): 0 | Velvetleaf plant response rating (velvetleaf; [7]): 4 | Velvetleaf plant response rating (velvetleaf; [8]): 4 | Nutsedge plant response rating (purple nutsedge; [1]): 0 | Nutsedge plant response rating (purple nutsedge; [2]): 0 | Nutsedge plant response rating (purple nutsedge; [3]): 0 | Plant response rating, Nutsedge (purple nutsedge; [4]): 0 | Plant response rating, Nutsedge (purple nutsedge; [5]): 0 | Nutsedge plant response rating (purple nutsedge; [6]): 0 | Nutsedge plant response rating (purple nutsedge; [7]): 0 | Nutsedge plant response rating (purple nutsedge; [8]): 0 | Rice plant response rating (rice; [1]): 0 | Rice plant response rating (rice; [9]): 0 | Rice plant response rating (rice; [10]): 0 | Rice plant response rating (rice; [11]): 0 | Ducksalad plant response rating (duck salad; [1]): 0 | Ducksalad plant response rating (duck salad; [9]): 0 | Ducksalad plant response rating (duck salad; [10]): 0 | Ducksalad plant response rating (duck salad; [11]): 0 | Barnyardgrass plant response rating (bamyardgrass; [1]): 0 | Barnyardgrass plant response rating (bamyardgrass; [9]): 0 | Barnyardgrass plant response rating (bamyardgrass; [10]): 0 | Barnyardgrass plant response rating (bamyardgrass; [11]): 0
